Data as given in patent US8404742B2, “Diosmetin compounds, a process for their preparation and pharmaceutical compositions containing them” (Les Laboratories Server, priority 2008, dated 2013).

Key:
[1] = system: Leukocyte adhesion to the endothelial cells in the post-capillary venules; test: In vivo inhibition of leukocyte adhesion (ischaemia/reperfusion, hamster cheek pouch); parameters: species or system hamsters; conditions: 3 mg/kg oral single dose, n=3
Protocol: Three groups of 3 hamsters, weighing from 90 to 110 g, are used in this study. Thirty minutes before anaesthesia, the hamsters are treated orally with a single dose of placebo (gum arabic 10%), of compound of Example 1 (3 mg/kg) or of reference compound (3 mg/kg). The animals are anaesthetised with pentobarbital 50 mg/kg by intraperitoneal administration. The hamsters are placed under a microscope and the cheek pouch is isolated and immersed in a perfusion solution (NaCl 110.0 mM, KCl 4.7 mM, CaCl2 2.0 mM, MgSO4 1.2 mM, NaHCO3 18.0 mM, Hepes 15.39 mM and Hepes Na^+-salt 14.61 mM), (Duling, The preparation and use of the hamster cheek pouch for studies of the microcirculation, 1973, Microvasc. Res. 5: 423-429; Svensjö et al., The hamster cheek pouch preparation as a model for studies of macromolecular permeability of the microvasculature, 1978, Uppsala J. Med. Sci. 83: 71-79).
Local ischaemia is brought about with the aid of a latex tube fitted at the entrance to the cheek pouch. The intratubular pressure of the tube is increased to 200-220 mm Hg with the aid of a calibrated syringe. This total occlusion is carried out for 30 minutes and then reperfusion is performed for 45 minutes. Leukocyte adhesion to the endothelial cells in the post-capillary venules is quantified in a field of 6 mm^2 immediately after the […] (defined as 100%) and then at different times after reperfusion (0, 15, 30 and 45 minutes).

NADPH oxidase = test: In vitro inhibition of the activity of NADPH oxidase in HUVEC (angiotensin II, lucigenin luminescence); type: cell-based, human; conditions: 100 μM compound, angiotensin II 1 μM induction, control = 100%, n=3
Protocol: The study is carried out on human endothelial cells HUVEC (Human Umbilical Vein Endothelial Cells, Clonetics Co). The cells are cultured in an EBM2 medium (Endothelial Basal Medium, Clonetics Co) supplemented with 2% FCS (Fœtal Calf Serum) and EGM2 (Endothelial Growth Medium, Clonetics Co).
The cells are incubated in the presence of solvent (0.1% DMSO, compound of Example 1 control), EBM2 (compound of Example 2 control and compound of Example 3 control), compound of Example 1 (100 μM), compound of Example 2 (100 μM) or compound of Example 3 (100 μM) for 15 minutes and then activated using angiotensin II (1 μM) for 30 minutes in order to activate the NADPH oxidase. The cells are washed with EBM2, and then the NADPH oxidase substrate (NADPH, 200 μM) and lucigenin (25 μM) are added. The reduction in lucigenin by the superoxide anions produced by the NADPH oxidase is quantified using a luminometer. The number of counts per second (cps) of the control groups is compared to the treatment groups. The cps obtained with the control groups are considered as 100% NADPH oxidase activity.
The activity of the compounds of Examples 1, 2 and 3 is evaluated as a function of the number of cps obtained, that activity being greater the lower the number of cps.

washed platelets = test: In vitro inhibition of platelet aggregation (collagen-induced, washed platelets, turbidimetry); conditions: Oryctolagus cuniculus, read-out: percentage inhibition of platelet aggregation
Protocol: The platelet-rich plasma is obtained by centrifugation. The platelets are then washed by centrifugation.
The washed platelets are resuspended in a Tyrode buffer. […] After 2 minutes, aggregation is brought about using collagen (4 μg/ml); the response is then recorded for 6 minutes. Platelet aggregation is quantified by means of turbidimetry, that is to say the percentage light that is transmitted through the platelet suspension with respect to a cell containing Tyrode and a cell containing the solvent (0.1% DMSO).

## C=C(C)Cc1c(-c2cc(=O)c3c(O)c(CC(=C)C)c(O)c(CC(=C)C)c3o2)ccc(OC)c1O [Example 1, 6,8,2′-Tris(isobut-2-en-1-yl)diosmetin]
[1]; 0 minutes after reperfusion
  number of leukocytes adhering to endothelial cells in post-capillary venules (number after ischaemia = 100%): 81.7 ± 19.1%
[1]; 15 minutes after reperfusion
  number of leukocytes adhering to endothelial cells in post-capillary venules (number after ischaemia = 100%): 100 ± 13.7%
[1]; 30 minutes after reperfusion
  number of leukocytes adhering to endothelial cells in post-capillary venules (number after ischaemia = 100%): 91.0 ± 18.7%
[1]; 45 minutes after reperfusion
  number of leukocytes adhering to endothelial cells in post-capillary venules (number after ischaemia = 100%): 109.3 ± 23.0%
NADPH oxidase
  NADPH oxidase activity (%/control group): 38.16 ± 3.13%
Washed platelets
  inhibition at 30 µM: 36.6 ± 9.9%

## C=C(C)Cc1c(-c2cc(=O)c3c(O)c(CC(=C)C)c(O[C@@H]4O[C@H](C(=O)O)[C@@H](O)[C@H](O)[C@H]4O)c(CC(=C)C)c3o2)ccc(OC)c1O [Example 2, (5-Hydroxy-2-[3-hydroxy-4-methoxy-2-(isobut-2-en-1-yl)phenyl]-6,8-bis(isobut-2-en-1-yl)-4-oxo-4H-chromen-7-yl)-beta-D-glucuronic acid]
NADPH oxidase
  NADPH oxidase activity (%/control group): 30.60 ± 4.83%

## C=C(C)Cc1c(-c2cc(=O)c3c(O)c(CC(=C)C)c(O)c(CC(=C)C)c3o2)ccc(OC)c1O[C@@H]1O[C@H](C(=O)O)[C@@H](O)[C@H](O)[C@H]1O [Example 3, 3-[5,7-Dihydroxy-6,8-bis(isobut-2-en-1-yl)-4-oxo-4H-chromen-2-yl]-6-methoxy-2-(isobut-2-en-1-yl)phenyl-beta-D-glucuronic acid]
NADPH oxidase
  NADPH oxidase activity (%/control group): 18.45 ± 4.08%
